The target in assay [1] is T1, ULK2 (Homo sapiens, UniProt Q8IYT8).
T1 sequence (Q8IYT8 1-1036): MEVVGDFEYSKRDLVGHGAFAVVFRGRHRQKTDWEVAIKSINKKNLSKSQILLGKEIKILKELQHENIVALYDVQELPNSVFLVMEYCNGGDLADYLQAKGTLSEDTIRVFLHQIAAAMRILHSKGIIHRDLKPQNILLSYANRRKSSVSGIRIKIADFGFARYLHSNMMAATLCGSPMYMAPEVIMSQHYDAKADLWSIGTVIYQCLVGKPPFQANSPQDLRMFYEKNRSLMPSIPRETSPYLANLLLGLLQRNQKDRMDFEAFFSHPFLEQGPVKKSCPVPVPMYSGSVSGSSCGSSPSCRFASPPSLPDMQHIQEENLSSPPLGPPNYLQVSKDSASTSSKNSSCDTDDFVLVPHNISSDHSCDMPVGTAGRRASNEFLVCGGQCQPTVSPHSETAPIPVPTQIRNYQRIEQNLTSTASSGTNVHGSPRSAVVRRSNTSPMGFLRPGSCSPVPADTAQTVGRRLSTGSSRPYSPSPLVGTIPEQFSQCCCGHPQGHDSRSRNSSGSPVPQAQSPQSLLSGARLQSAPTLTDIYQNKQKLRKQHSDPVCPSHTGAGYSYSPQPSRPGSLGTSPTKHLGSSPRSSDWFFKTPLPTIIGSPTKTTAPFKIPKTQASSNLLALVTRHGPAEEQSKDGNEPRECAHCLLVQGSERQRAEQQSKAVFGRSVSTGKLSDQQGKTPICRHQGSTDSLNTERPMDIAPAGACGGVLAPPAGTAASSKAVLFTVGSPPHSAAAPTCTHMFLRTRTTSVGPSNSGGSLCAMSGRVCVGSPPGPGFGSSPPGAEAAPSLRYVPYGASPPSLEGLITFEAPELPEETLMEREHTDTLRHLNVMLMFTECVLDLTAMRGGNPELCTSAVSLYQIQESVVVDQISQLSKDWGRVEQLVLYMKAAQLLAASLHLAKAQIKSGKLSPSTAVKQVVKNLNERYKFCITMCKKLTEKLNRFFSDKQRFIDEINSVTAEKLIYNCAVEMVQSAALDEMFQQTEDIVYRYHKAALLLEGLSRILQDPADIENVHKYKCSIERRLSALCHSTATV
Put plainly: ADP-Glo kinase assay. In kind it is biochemical.

Assay [2] deals with T2, ULK1 (Homo sapiens, UniProt O75385).
T2 sequence (O75385 1-1050): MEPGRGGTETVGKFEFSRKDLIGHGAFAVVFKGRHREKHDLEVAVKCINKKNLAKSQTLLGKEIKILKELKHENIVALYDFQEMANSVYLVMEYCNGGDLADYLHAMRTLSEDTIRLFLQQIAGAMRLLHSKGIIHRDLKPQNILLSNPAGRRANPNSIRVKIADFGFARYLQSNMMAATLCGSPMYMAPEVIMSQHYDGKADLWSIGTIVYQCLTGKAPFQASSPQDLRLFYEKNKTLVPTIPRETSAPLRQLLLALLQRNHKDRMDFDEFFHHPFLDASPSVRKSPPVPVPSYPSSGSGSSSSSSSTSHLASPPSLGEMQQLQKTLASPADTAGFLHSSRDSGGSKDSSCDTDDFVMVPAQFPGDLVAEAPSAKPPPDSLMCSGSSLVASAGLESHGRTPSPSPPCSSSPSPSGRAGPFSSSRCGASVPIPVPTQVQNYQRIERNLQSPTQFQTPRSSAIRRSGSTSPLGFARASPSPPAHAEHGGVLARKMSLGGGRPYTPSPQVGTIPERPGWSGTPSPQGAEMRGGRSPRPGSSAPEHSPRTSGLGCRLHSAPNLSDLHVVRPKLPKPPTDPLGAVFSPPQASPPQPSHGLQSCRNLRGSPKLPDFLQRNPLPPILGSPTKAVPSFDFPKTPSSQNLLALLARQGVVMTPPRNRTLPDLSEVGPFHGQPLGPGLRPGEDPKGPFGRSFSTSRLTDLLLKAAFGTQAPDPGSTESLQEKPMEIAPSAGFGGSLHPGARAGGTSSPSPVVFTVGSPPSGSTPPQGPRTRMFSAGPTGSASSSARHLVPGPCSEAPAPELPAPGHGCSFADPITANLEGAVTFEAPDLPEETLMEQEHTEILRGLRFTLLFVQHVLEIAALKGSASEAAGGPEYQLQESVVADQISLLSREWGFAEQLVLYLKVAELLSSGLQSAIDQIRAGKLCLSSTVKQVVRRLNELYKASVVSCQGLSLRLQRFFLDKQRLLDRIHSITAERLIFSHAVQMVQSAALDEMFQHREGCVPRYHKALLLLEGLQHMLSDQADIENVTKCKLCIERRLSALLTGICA
Put plainly: ADP-Glo kinase assay. In kind it is biochemical. A general note: ADP-Glo first removes unused ATP, then detects ADP through luciferase.

Assay [3] has as its target T3, kinase domain of ULK1 (Homo sapiens, UniProt O75385).
T3 sequence (O75385 1-283 limits assumed): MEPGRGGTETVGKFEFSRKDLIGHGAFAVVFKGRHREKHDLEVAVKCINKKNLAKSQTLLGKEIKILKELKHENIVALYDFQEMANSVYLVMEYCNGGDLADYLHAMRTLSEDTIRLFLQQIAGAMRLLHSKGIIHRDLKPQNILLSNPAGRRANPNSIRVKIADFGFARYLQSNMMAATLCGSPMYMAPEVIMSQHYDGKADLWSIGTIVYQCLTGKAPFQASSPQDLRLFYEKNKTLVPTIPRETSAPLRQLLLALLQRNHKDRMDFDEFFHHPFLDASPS
To be noted: binder.

Assay [4] has as its target T4, kinase domain of ULK2 (Homo sapiens, UniProt Q8IYT8).
T4 sequence (Q8IYT8 1-276 limits assumed): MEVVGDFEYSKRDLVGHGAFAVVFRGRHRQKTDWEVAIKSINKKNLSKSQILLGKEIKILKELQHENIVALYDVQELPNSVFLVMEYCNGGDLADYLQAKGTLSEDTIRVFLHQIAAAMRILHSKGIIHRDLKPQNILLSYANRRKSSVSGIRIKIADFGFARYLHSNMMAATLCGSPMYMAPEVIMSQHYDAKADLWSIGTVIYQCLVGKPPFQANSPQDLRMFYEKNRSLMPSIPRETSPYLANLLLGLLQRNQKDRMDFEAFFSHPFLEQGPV
To be noted: binder.

The target of assay [5] is T5, ULK1 (NanoBRET) (Homo sapiens, UniProt O75385).
T5 sequence (O75385 1-1050): T2 sequence (O75385 1-1050)
The experiment in a line: NanoBRET cellular target engagement. Format: cell-based.

Assay [6] concerns the target T2, ULK1. Put plainly: biochemical.
Assay [7] concerns the target T1, ULK2. Put plainly: biochemical.

Turning to `CNC(=O)c1ccccc1Nc1nc(Nc2ccc(N3CCOCC3)cc2OC)ncc1Cl` [6a, 2-(5-Chloro-2-(2-methoxy-4-morpholinophenylamino)pyrimidin-4-ylamino)-N-methylbenzamide], the concentration for half-maximal inhibition (IC50) (as a rule, the midpoint of a concentration-inhibition curve) was over 3000 nM in assay [1] and 153 nM in assay [2]. Moreover, in assay [3], the “ULK1 PTS (ºC)” value is 3.65 ± 0.07 °C. The “ULK2 PTS (ºC)” value in assay [4] turned out to be 2.31 ± 0.09 °C.
`CNC(=O)c1ccccc1Nc1nc(Nc2cc(OC)c(OC)c(OC)c2)ncc1C(F)(F)F` [6p, N-Methyl-2-(5-(trifluoromethyl)-2-(3,4,5-trimethoxyphenylamino)pyrimidin-4-ylamino)benzamide]: the half-inhibitory concentration (IC50) in assay [1] is 7 nM; in assay [2], 10 nM; in assay [5] it was 10 nM. Also, in assay [3], the “ULK1 PTS (ºC)” value is 16.50 ± 0.15 °C. For the same molecule, in assay [4], the “ULK2 PTS (ºC)” value was determined as 15.81 ± 0.06 °C.
Consider `CNC(=O)c1ccccc1Nc1nc(Nc2ccc3c(c2)CCC(=O)N3)ncc1C(F)(F)F` [6d, N-Methyl-2-(2-(2-oxo-1,2,3,4-tetrahydroquinolin-6-ylamino)-5-(trifluoromethyl)pyrimidin-4-ylamino)benzamide], for which the IC50 was 172 nM in assay [1], 103 nM in assay [5] and 8 ± 2 nM in assay [6]. For the same molecule, in assay [3], the “ULK1 PTS (ºC)” value was determined as 7.70 ± 0.43 °C. The “ULK2 PTS (ºC)” value in assay [4] was 3.73 ± 0.81 °C.
Regarding `CNC(=O)c1ccccc1Nc1nc(Nc2cc(OC)c(OC)c(OC)c2)ncc1Cl` [6o, 2-(5-Chloro-2-(3,4,5-trimethoxyphenylamino)pyrimidin-4-ylamino)-N-methylbenzamide], the half-inhibitory concentration (IC50) in assay [2] came to 8 nM; in assay [5] it was 4.05 nM. The “ULK1 PTS (ºC)” value in assay [3] came to 14.25 ± 0.11 °C. In assay [4], the “ULK2 PTS (ºC)” value was 12.01 ± 0.05 °C.
Consider `CNC(=O)c1ccccc1Nc1ccnc(Nc2cc(OC)c(OC)c(OC)c2)n1` [6q, N-Methyl-2-(2-(3,4,5-trimethoxyphenylamino)pyrimidin-4-ylamino)benzamide], for which the half-inhibitory concentration (IC50) in assay [1] was 30000 nM; in assay [2] it was 603 nM; in assay [7], over 3000 nM. Also, the “ULK1 PTS (ºC)” value in assay [3] turned out to be 5.18 ± 0.17 °C. Further, the “ULK2 PTS (ºC)” value in assay [4] came out at 2.71 ± 0.09 °C.
As to `CNC(=O)c1ccccc1Nc1nc(Nc2ccc3c(c2)CCC(=O)N3)ncc1Cl` [6e, 2-(5-Chloro-2-(2-oxo-1,2,3,4-tetrahydroquinolin-6-ylamino)pyrimidin-4-ylamino)-N-methylbenzamide], the values for the IC50 in assay [1] and in assay [2] were 1440 nM and 22 nM, respectively. Besides, the “ULK1 PTS (ºC)” value in assay [3] came out at 0.15 ± 0.06 °C. Moreover, the “ULK2 PTS (ºC)” value in assay [4] turned out to be 0.43 ± 0.34 °C.
As to `CNC(=O)c1ccccc1Nc1nc(Nc2cc(N3CCOCC3)cc(N3CCOCC3)c2)ncc1C(F)(F)F` [6r, 2-(2-(3,5-dimorpholinophenylamino)-5-(trifluoromethyl)pyrimidin-4-ylamino)-N-methylbenzamide], the half-inhibitory concentration (IC50) in assay [5] turned out to be 17 nM; in assay [6], 15 ± 1 nM; in assay [7] it was 19 ± 3 nM. Further, the “ULK1 PTS (ºC)” value in assay [3] was 17.28 ± 0.06 °C. In addition, in assay [4], the “ULK2 PTS (ºC)” value turned out to be 16.70 ± 0.05 °C.
